This note sets out measurements from US4755594A, “N^6 -substituted adenosines” (Warner-Lambert Company, priority 1986, dated 1988).

The ED50 is the midpoint of the dose-response relation.

SMILES strings stand for the structures.

Experiment [1] is described as follows: Conditioned shock avoidance (SIDR), antipsychotic. The experiment is classed as in vivo, male Long-Evans rats. The settings on record: Rattus norvegicus; read-out: ED50 in the SIDR protocol. How it is done:
(§1) Representative compounds of the invention (identified in the Examples) were also tested for antipsychotic activity according to the following protocol (SIDR or SIDSM). The noted compound has the indicated ED50 values (mg/kg) and is considered active as an antipsychotic agent in the test procedure.
(§2) Mature male Long-Evans rats (SIDR) or squirrel-monkeys (SIDSM) are conditioned to push a lever in order to avoid a painful electric footshock. If the animals fails to push the lever, he receives a shock every ten seconds until the lever is pushed. Shocks can be terminated by pushing the lever. Thereafter, as long as the lever is pushed at least once every 20 seconds, there will be no shock.
(§3) Each animal acts as its own control; one weekly session is used to establish baseline behavior and another session later in the week is used as a drug session. Once patterns of avoidance are established, the effects of standard and unknown compounds are studied.

The nature of experiment [2]: Conditioned shock avoidance (SIDSM), antipsychotic. To be noted: Primates; squirrel-monkey; read-out: ED50 in the SIDSM protocol. It is filed as in vivo, squirrel-monkeys. The procedure: as §1, §2, §3

With `OC[C@H]1O[C@@H](n2cnc3c(NCC4(c5ccccc5)CC4)ncnc32)[C@H](O)[C@@H]1O` [Example 1, N6-((1-Phenylcyclopropyl)methyl)adenosine], the ED50 in experiment [1] was determined as 0.55 mg/kg; in experiment [2], 0.52 mg/kg.
